Test results: patent US20220304964A1, “PARA-AMINOHIPPURIC ACID (PAH) AS A RENAL PROTECTIVE SUBSTANCE” (ITM Isotope Technologies Munich SE, priority 2019, published 2022)
Like-named read-outs stand apart in the source and are kept apart here.

Assays:
rats = settings: Natochin et al. 1989; cited from earlier work
[1] = Radiolabel stability of ^99mTc-Etarfolatide (HPLC, ITLC-SG); assay type: physicochemical; settings: 24 h post-preparation
Experimental: Radiolabeling efficiency and stability was determined using: (i) Instant thin layer chromatography-silica gel (ITLC-SG) with water (Rf of ^99mTc-Etarfolatide and free pertechnetate=0.9-1.0; Rf of colloid=0.0-0.1) and acetone (Rf of free pertechnetate=0.9-1.0; Rf of colloid and ^99mTc-Etarfolatide=0.0-0.1) as the mobile phases and (ii) RP-HPLC: Solvent A: 0.1% TFA in H2O. Solvent B: 0.1% TFA in AcCN; Gradient Elution, flow rate 1 mL/min.
On each day of experimentation, a new radiolabeling procedure was performed with approximately the same ^99mTc activity.
The volume of the radiolabeled folate was measured to be 1300 μL, while the activity was 734 MBq (Day of experimentation: March 4th). A sample corresponding to 300 MBq (i.e. 15 MBq×20 mice) was prepared. 531 μL were taken from the radiolabeled folate, which was diluted with either 1469 μL Saline or 1469 μL PAH (2000 μL 99mTc-etarfolatide, 100 μL/15 MBq per mouse). Before injection, the sample was filtered through a […] sterile filter. The injected 15 MBq/mouse corresponds to 2.04 μg Etarfolatide/mouse (injected quantity of Etarfolatide was kept stable throughout the experiment).

[2] = low plasma concentrations (1.0 to 2.0 mg/100 mL); average; cited from earlier work
female mice = settings: cited from earlier work
[3] = tested on: Laboratory Rat (Rattus norwegicus), Lewis; assay: SPECT biodistribution of ^177Lu-PSMA I&T with kidney protection agents (PAH, Probenecid, saline); assay type: in vivo; settings: for radioactivity in kidney cells (^177Lu-PSMA I&T): compared to the saline control (PAH also compared to probenecid), FIGS. 11 to 14
Source text: The protocol was executed in a way to test the radioactivity concentration of the kidneys in groups of animals injected with one TA but three different KP agents in three separate groups. Thus, the following matrix of experimental groups was formed.

male Wistar rats = assay: Ex-vivo organ distribution of [^177Lu-DOTA^o-Tyr3]-octreotide after pre-/co-injection of NaCl, Arg-Lys or PAH; assay type: in vivo; settings: 5 min and 60 min p.i., N=5, with respect to NaCl infusions
Experimental: All animals were pre-injected 10 min before the radiotracer injection with 1.0 mL of NaCl, Arg-Lys or PAH.
The animals were injected and sacrificed after 5 min or 60 min. Organs and tissue of interest were harvested and measured for activity. […] The average injected activity was 4.49±0.38 MBq/kg body weight (5 min) and 159±13 MBq/kg body weight (5 min) for the SPECT and 4.19±0.57 MBq/kg body weight (60 min) or 139±8 MBq/kg body weight for the SPECT animals (60 min).
(§1) For statistical analysis Microsoft Excel 2010 and Graphpad Prism 6.05 were employed. Data are presented as median and [25% and 75% percentile] and mean and standard deviation (SD) or standard error of mean (SEM). For comparison, ordinary one way ANOVA and Tukey's multiple comparisons test, two-sample two-tailed t-test were employed. Significance was accepted with P<0.05.
The results are graphically illustrated in FIG. 5.

healthy Wistar rats [4] = assay: SPECT/CT kidney and blood (heart) radioactivity of ^177Lu-labeled DOTA compounds with co-injection of PAH or saline; assay type: in vivo; settings: ^177Lu-DOTA-Affilin
Experimental: (§2) The tracer distribution of the radiolabeled test compounds were performed in two distinct cohorts of healthy Wistar rats with focus on the kidney uptake/clearance and blood levels. […] Each cohort comprises at least 3 rats for statistic matters.
Testing parameters were provided for each compound, RCP >95%.
The percentage of injected radioactivity present in the kidneys over time was determined according to the above protocol. The results are graphically illustrated in FIG. 6.
The percentage of injected radioactivity present in blood over time was determined according to the above protocol. The results are graphically illustrated in FIG. 7.

mice = assay: Comparative biodistribution of ^99mTc-Etarfolatide given with PAH or saline; assay type: in vivo; settings: PAH IP 10 min prior + tracer diluted in PAH vs saline; after 30 min; FIG. 10
Experimental: 30 mice (male and female) were randomly assigned to two groups.
Group A: The mice were injected with ^99mTc Etarfolatide diluted in PAH (2.04 μg Etarfolatide/mouse) after having received an IP injection of PAH 10 min prior to radiotracer injection. Five time-points were assessed: 5 min, 30 min, 1 h, 2 h, 4 h (3 mice per time-point).
Group B: The mice were injected with ^99mTc Etarfolatide diluted in saline (2.04 μg Etarfolatide/mouse) after having received an IP injection of saline 10 min prior to radiotracer injection. Five time-points were assessed: 5 min, 30 min, 1 h, 2 h, 4 h (3 mice per time-point).

AR42J tumor mouse model = assay: Comparative biodistribution of ^177Lu-DOTATOC i.v. after i.p. PAH or saline; assay type: in vivo, CD1 nude mice; settings: FIG. 9
Experimental: Mice (3 animals per group) were sacrificed at 0.5 h, 1 h, 2 h, and 4 h, respectively. The organs were quickly rinsed in 0.9% NaCl and dried before being weighed and counted to eliminate possible contaminating blood. […] Data from organ/tissue counting are expressed as percentage of injected dose (% ID/g)).

healthy Wistar rats [5] = assay: Kidneys uptake of [^177Lu-DOTA^o-Tyr3]-octreotide by quantitative small animal SPECT with co-infusion of kidney protection agent; assay type: in vivo; settings: vs 0.9% NaCl co-infusion
Experimental: Imaging acquisition was performed after 0.5 h, 1 h, 4 h, 8 h, 24 h p.i.
as §1

healthy Wistar rats [6] = assay: PET/CT kidney and blood radioactivity of ^68Ga-labeled HBED-CC-PSMA-11 with co-injection of PAH or saline; assay type: in vivo; settings: PAH 200 mg/mL vs 0.9% NaCl; 0.1, 0.5, 1, 2, 4 h; FIG. 8
Experimental: as §2
Mice were injected with diagnostic ^68Ga-labeled PSMA-11 conjugated with acyclic chelator HBED-CC, and co-injected with PAH (200 mg/mL) or saline (0.9% NaCl) as a control. The percentage of injected radioactivity present in kidney (upper lane) and blood (lower lane) over time was determined according to the above protocol. The results are graphically illustrated in FIG. 8.

patients = settings: cited from earlier work
[7] = at all time points (0.5-4 h), vs saline
[8] = group B (PAH) compared to group A (NaCl)

Compound: NS(=O)(=O)c1cc(C(=O)O)c(NCc2ccco2)cc1Cl [fursosemide]
- effect on cisplatin's nephrotoxic effects (rats): reduce cisplatin's nephrotoxic effects

Compound: Nc1nc2ncc(CNc3ccc(C(=O)N[C@H](CCC(=O)NC[C@@H]4[NH][99Tc]56(=[O])[S]C[C@@H](C(=O)O)[N]5C(=O)[C@H](CC(=O)O)[N]6C4=O)C(=O)O)cc3)nc2c(=O)[nH]1 [^99mTc-Etarfolatide]
- Stability of radiolabel by HPLC [1]: no loss of radiolabel

Compound: C[N+](C)(C)CCO.[Cl-] [Choline chloride]
- effect on cisplatin's nephrotoxic effects (rats): reduce cisplatin's nephrotoxic effects

Compound: Nc1ccc(C(=O)NCC(=O)O)cc1 [PAH, para-aminohippuric acid]
- PAH cleared by the kidneys from the renal blood stream by a single circulation [2]: 90%
- intravenous LD 50 (female mice): 7220 mg/kg
- renal cortex radioactivity (^177Lu-PSMA I&T) [3, 7]: reduced radioactivity
- renal medulla radioactivity (^177Lu-PSMA I&T) [3, 7]: reduced radioactivity
- radioactivity in kidney cells (^177Lu-PSMA I&T) [3]: marked reduction of radioactivity
- ex-vivo uptake of [^177Lu-DOTA^o-Tyr3]-octreotide in the kidneys (male Wistar rats): significantly reduced the uptake in the kidneys
- kidney uptake of Affilin (healthy Wistar rats [4]; PAH 200 mg/mL vs 0.9% NaCl, versus the other compounds tested): less prominently reduced
- blood activity of Affilin (percentage of injected radioactivity in blood) (healthy Wistar rats [4]; co-injected PAH 200 mg/mL vs 0.9% NaCl, FIG. 7): significant increase of blood activity
- kidney uptake of radiolabeled compounds (percentage of injected radioactivity in kidneys) (healthy Wistar rats [4]; ^177Lu-DOTA-RGD, ^177Lu-DOTA-Sargastrin, ^177Lu-DOTA-JR11, PAH 200 mg/mL vs 0.9% NaCl, 0.5, 1, 4, 24 h, FIG. 6): significant effect in reduction of kidney uptake
- renal uptake of ^99mTc-Etarfolatide (mice): decreased renal uptake
- ^177Lu-DOTATOC uptake in kidneys (AR42J tumor mouse model; group B (PAH 20% i.p. 50 μL + ^177Lu-DOTATOC/PAH) vs group A (NaCl 0.9%), 0.5-4 h): significant decrease
- ^177Lu-DOTATOC level in blood (AR42J tumor mouse model; [8]): significantly increased
- ^177Lu-DOTATOC level in tumor (AR42J tumor mouse model; [8]): significantly increased
- kidney uptake reduction of [^177Lu-DOTA^o-Tyr3]-octreotide (healthy Wistar rats [5]; 0.5 h post injection): 50%
- kidney uptake reduction of [^177Lu-DOTA^o-Tyr3]-octreotide (healthy Wistar rats [5]; after 8 h): 56%
- kidney uptake reduction of [^177Lu-DOTA^o-Tyr3]-octreotide (healthy Wistar rats [5]; after 24 h): 50%
- effect on cisplatin's nephrotoxic effects (rats): reduce cisplatin's nephrotoxic effects
- kidney uptake of ^68Ga-labeled HBED-CC conjugated PSMA-11 (healthy Wistar rats [6]): significant reduction of kidney uptake

Compound: CCCN(CCC)S(=O)(=O)c1ccc(C(=O)O)cc1 [Probenecid]
- radioactivity in kidney cells (^177Lu-PSMA I&T) [3]: no effect

Compound: NCCCC[C@H](N)C(=O)O [lysine]
- Kidney uptake reduction of radiolabeled octreotide (patients; 25 g of lysine, P<0.04): 17%+/−9%
- Kidney uptake reduction of radiolabeled octreotide (patients; 50 g of lysine, P<0.04): 15%+/−13%
- serum potassium levels (patients; 75 g of lysine (Lys75) or 25 g lysine plus 25 g arginine (LysArg)): rose significantly
- Kidney uptake reduction of radiolabeled octreotide (patients; 75 g of lysine, P<0.001): 44%+/−11%

Compound: C=C(CC)C(=O)c1ccc(OCC(=O)O)c(Cl)c1Cl [ethacrynic acid]
- effect on cisplatin's nephrotoxic effects (rats): reduce cisplatin's nephrotoxic effects
